Tests used:
Type in all cases: in vivo
[1] = Determination of the mean lethal dose (LD50), oral administration to mice; conditions: mouse, in vivo, po, stabilized suspension in isotonic sodium chloride solution, 14 days observation
Description: (§1) The preliminary assignment of a substance to a certain toxicity class is based on an indicator that quantitatively characterizes the acute toxicity of the compound—the dose of the substance that causes a lethal effect in 50% of the population (LD50). Determination of this indicator in one of the types of experimental animals allows to extrapolate it for other species and justify the dose limits for the first phase of clinical trials.
(§2) To calculate the average dose, mortality/survival rates of the animals by the end of the observation period were used.

rats = test: Model of thermal nociception (tail flick test) on rats; conditions: rat tail-flick, latency 2 hours after administration, dispersed in saline with Tween 80
Protocol: Antinociceptive (analgesic) activity was evaluated on a rat tail “tail-flick” model using a focused light beam on rats. Latency time was determined by tail pulling away from the beam source, expressed in seconds. Animals were randomized with respect to the initial value of the latent period, with index from 4 to 12 seconds. The magnitude of the antinociceptive effect was indicated by the increasing of the length of the latent period (pain sensitivity threshold, PST). The initial indices of the PST and its changes 2 hours after the administration of the test compound were compared. The calculation of ED50 (the average effective dose of analgesic activity in this model for rats) was carried out using the least squares method.
Three samples of compound (I) were prepared and used in the ‘tail-flick’ test: • The first sample is prepared using the sample of Comparative Example 1, i.e. Form I, in its natural coarse crystalline state. In particular, the coarse crystalline sample of Comparative Example 1 is dispersed in a saline solution and stabilized with Tween 80). The crystalline structure (Form I) remains unchanged. • The second sample was prepared by micronizing (mechanically grinding) the coarse crystalline sample of Comparative Example 1, in order to prepare a sample of Form I having a smaller average particle size. In particular, the micronized sample is dispersed in a saline solution and stabilized with Tween 80). The crystalline structure (Form I) remains unchanged. • The third sample is a dispersed sample of Inventive Example 1, i.e. compound (I) in crystalline Form II. In particular, a sample of Inventive Example 1 is dispersed in a saline solution and stabilized with Tween 80). The crystalline structure (Form II) remains unchanged. The third sample has a similar average particle size to the second sample for a side-by-side comparison.

mice [2] = test: Model of acetic acid-induced pain (cramps) on mice; conditions: 0.75% acetic acid i.p. 2 hours after test compound, cramps counted 1st to 20th minute
Protocol: To reproduce acute visceral and somatic deep pain (nociceptive pain), the method of “acetic acid-induced pain (cramps)” was used in mice. The mice received a 0.75% solution of acetic acid intraperitoneally (at a dose of 0.1 ml/10 g of body weight), 2 hours after the administration of the test compounds. The number of cramps was counted from the first to the 20th minute (inclusive) after modeling the pathological state. The calculation of ED50 (the average effective dose of analgesic activity in this model for mice) was carried out using the least squares method.
Two samples of compound (I) were prepared and used in the ‘tail-flick’ test: • The first sample is a dispersed sample of Form I. This was prepared by adding a hot (65° C.) saturated solution of Comparative Example 1 (Form I) in ethyl alcohol to water at room temperature (about 20° C.) and atmospheric pressure (about 101.325 KPa). Dispersed Form I has a particle size (D(50)) of around 29 μm. • The second sample is a dispersed sample of Inventive Example 1, i.e. compound (I) in crystalline Form II. This sample is prepared by was dispersing Inventive Example 1 in a saline solution stabilized with Tween-80. The crystalline structure remains unchanged. Dispersed Form II has a particle size (D(50)) of around 24.3 μm.

mice [3] = test: Determination of the mean lethal dose (LD50), oral administration to mice; conditions: stabilized suspension in isotonic sodium chloride solution, 14 days observation
Description: as §1, §2

Compound | LD50 at 14 days [1] [mg/kg] | ED50 (Average effective dose (50%)) (rats; listed as Form I (coarse crystalline)) [mg/kg] | ED50 (Average effective dose (50%)) (rats; listed as Form I (micronized)) [mg/kg] | ED50 (Average effective dose (50%)) (mice [2]; listed as Dispersed Form I) [mg/kg] | LD50 (mean lethal dose) (mice [3]) [mg/kg] | ED50 (Average effective dose (50%)) (rats) [mg/kg] | ED50 (Average effective dose (50%)) (mice [2]; listed as Dispersed Form II) [mg/kg]
CCCOC1N=C(c2ccccc2Cl)c2cc(Br)ccc2NC1=O (stereo not shown) [Form I, 7-Bromo-3-propoxy-5-(2-chlorophenyl)-1,3-dihydrobenzo-[e]-[1,4]-diazepin-2-one] | 1120 ± 190 | 1.82 | 1.06 | 1.87 |  |  | 
CCCOC1N=C(c2ccccc2Cl)c2cc(Br)ccc2NC1=O (stereo not shown) [Form II, 7-Bromo-3-propoxy-5-(2-chlorophenyl)-1,3-dihydrobenzo-[e]-[1,4]-diazepin-2-one] |  |  |  |  | 1475 ± 402 | 0.17 | 0.89

Reference: patent US12129238B2, “Crystalline form of propoxazepam, the method of its making and use as medicinal agent” (priority 2018, dated 2024)
